What was measured:
[1] = biological target: T1, Inhibitor of nuclear factor kappa-B kinase subunit alpha (Homo sapiens, UniProt O15111); assay: Inhibition of IKK1
T1 sequence (O15111 whole entry): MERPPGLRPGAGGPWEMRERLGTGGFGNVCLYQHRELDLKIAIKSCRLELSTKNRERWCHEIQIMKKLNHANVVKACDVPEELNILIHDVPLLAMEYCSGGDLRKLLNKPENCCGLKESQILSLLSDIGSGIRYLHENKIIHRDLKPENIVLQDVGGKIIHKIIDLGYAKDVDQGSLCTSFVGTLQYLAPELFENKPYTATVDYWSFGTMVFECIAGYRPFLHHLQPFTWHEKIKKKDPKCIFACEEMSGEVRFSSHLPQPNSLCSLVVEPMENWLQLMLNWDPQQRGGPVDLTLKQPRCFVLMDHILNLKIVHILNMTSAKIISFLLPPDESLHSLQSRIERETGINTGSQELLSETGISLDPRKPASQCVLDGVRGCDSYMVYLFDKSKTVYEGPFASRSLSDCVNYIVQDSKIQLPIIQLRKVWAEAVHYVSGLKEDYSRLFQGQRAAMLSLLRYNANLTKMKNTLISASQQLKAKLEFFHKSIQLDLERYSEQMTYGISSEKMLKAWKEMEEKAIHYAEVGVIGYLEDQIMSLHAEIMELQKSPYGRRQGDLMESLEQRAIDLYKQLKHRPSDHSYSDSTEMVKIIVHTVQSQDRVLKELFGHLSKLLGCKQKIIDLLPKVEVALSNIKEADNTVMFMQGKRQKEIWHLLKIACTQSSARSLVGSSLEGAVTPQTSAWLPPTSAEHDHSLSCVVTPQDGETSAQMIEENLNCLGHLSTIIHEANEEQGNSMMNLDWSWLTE

[2] = biological target: T2, Inhibitor of nuclear factor kappa-B kinase subunit beta (Homo sapiens, UniProt O14920); assay: Inhibition of IKK2
T2 sequence (O14920 whole entry): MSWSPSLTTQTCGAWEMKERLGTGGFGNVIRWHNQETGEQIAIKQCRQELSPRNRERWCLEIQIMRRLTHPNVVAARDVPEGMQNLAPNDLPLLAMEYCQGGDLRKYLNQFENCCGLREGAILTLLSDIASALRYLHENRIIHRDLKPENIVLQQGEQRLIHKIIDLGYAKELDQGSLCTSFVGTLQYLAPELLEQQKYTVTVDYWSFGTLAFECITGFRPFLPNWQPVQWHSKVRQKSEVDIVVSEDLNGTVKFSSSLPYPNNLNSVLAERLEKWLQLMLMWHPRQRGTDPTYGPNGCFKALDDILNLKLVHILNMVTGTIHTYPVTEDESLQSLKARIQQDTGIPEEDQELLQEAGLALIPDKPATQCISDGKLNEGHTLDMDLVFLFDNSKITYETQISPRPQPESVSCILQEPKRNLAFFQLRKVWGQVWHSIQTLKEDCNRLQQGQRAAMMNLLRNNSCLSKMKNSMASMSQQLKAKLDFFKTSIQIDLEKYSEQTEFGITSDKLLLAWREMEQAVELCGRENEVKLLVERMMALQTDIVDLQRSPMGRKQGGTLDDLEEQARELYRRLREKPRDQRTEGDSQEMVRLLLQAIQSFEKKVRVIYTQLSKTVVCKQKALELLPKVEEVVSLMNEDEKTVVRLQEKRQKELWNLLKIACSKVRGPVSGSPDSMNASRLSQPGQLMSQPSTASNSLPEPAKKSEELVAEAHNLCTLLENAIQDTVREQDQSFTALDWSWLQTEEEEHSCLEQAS

[3] = Selectivity ratio of IC50 for E-selectin promoter transfected in human A549 cells to IC50 for IKK2; assay type: functional
[4] = tested on: A549; assay: Inhibition of TNF-alpha-stimulated E-selectin promoter transfected human A549 cells after 6 hrs; assay type: functional, cell-based; conditions: A549, 6 h
[5] = Selectivity ratio of IC50 for IKK1 to IC50 for IKK2
[6] = biological target: T3, Inhibitor of nuclear factor kappa-B kinase subunit alpha (Homo sapiens) (UniProt O15111); assay: Inhibition of IKK1 at 10 uM
T3 sequence (whole entry): T1 sequence (O15111 whole entry)

`COc1cccc2nc(-c3cccs3)nc(NN3C(=O)C=C(C)C3=O)c12` [AS-602868] gave an IC50 [1] of 13000 nM.
`Cc1ccc(S(=O)(=O)Nc2ccc(-c3ccnc(Nc4ccc5ncsc5c4)n3)cc2)cc1` showed an IC50 [2] of 1500 nM.
Work on `COc1ccc(S(=O)(=O)Nc2ccc(-c3ccnc(Nc4ccc5ncsc5c4)n3)cc2)cc1` yielded an IC50 [2] of 8900 nM.
With `c1ccc(Oc2ccc(-c3ccnc(Nc4ccc5ncsc5c4)n3)cc2)cc1` the IC50 [2] was 6600 nM.
In the case of `O=C(Nc1ccc(-c2ccnc(Nc3ccc4ncsc4c3)n2)cc1)C1CCNCC1`, the “Ratio IC50” value [3] is reported as 9.5, the IC50 [4] is reported as 3820 nM and the IC50 [2] is reported as 400 nM. The IC50 [1] was 1910 nM.
In the case of `c1cnc(Oc2ccc(-c3ccnc(Nc4ccc5ncsc5c4)n3)cc2)nc1`, the IC50 [2] is reported as 3600 nM.
In the case of `O=S(=O)(c1ccc(-c2ccnc(Nc3ccc4ncsc4c3)n2)cc1)N1CCOCC1`, the “Ratio IC50” value [3] is reported as 4.8, the IC50 [4] is reported as 1810 nM and the IC50 [2] is reported as 380 nM. The IC50 [1] was 6700 nM.
For `O=S(=O)(Nc1ccc(-c2ccnc(Nc3ccc4ncsc4c3)n2)cc1)c1ccc2nonc2c1`, the Ratio IC50 [5] was 21, the “Ratio IC50” value [3] was 77 and the IC50 [4] was 17800 nM. The IC50 [2] was 230 nM and the IC50 [1] was 4840 nM.
In the case of `O=S(=O)(c1ccc(-c2ccnc(Nc3ccc4ncsc4c3)n2)cc1)N1CCCCC1`, the Ratio IC50 [5] is reported as greater than 17, the “Ratio IC50” value [3] is reported as 3.5 and the inhibition [6] is reported as 30%. It also gave an IC50 [4] of 2080 nM and an IC50 [2] of 600 nM.
Work on `O=S(=O)(Nc1ccc(-c2ccnc(Nc3ccc4ncsc4c3)n2)cc1)c1ccc(Cl)cc1` yielded a Ratio IC50 [5] of 3, an IC50 [2] of 990 nM and an IC50 [1] of 2990 nM.
With `CN1CCN(c2ccc(-c3ccnc(Nc4ccc5ncsc5c4)n3)cc2)CC1` the Ratio IC50 [5] was 6, the “Ratio IC50” value [3] was 3.1 and the IC50 [4] was 1270 nM. The IC50 [2] was 410 nM and the IC50 [1] was 2630 nM.
In the case of `O=C(Nc1ccc(-c2ccnc(Nc3ccc4ncsc4c3)n2)cc1)C1CCCN1` (stereo unspecified), the Ratio IC50 [5] is reported as 1, the IC50 [2] is reported as 130 nM and the IC50 [1] is reported as 146 nM.
In the case of `O=S(=O)(c1ccccc1)c1ccc(-c2ccnc(Nc3ccc4ncsc4c3)n2)cc1`, the Ratio IC50 [5] is reported as greater than 22, the inhibition [6] is reported as 24% and the IC50 [2] is reported as 440 nM.
For `O=S(=O)(c1ccc(-c2ccnc(Nc3ccc4ncsc4c3)n2)cc1)N1CCCC1`, the “Ratio IC50” value [3] was 2.8, the inhibition [6] was 48% and the IC50 [4] was 1500 nM. For the same molecule, the IC50 [2] was 540 nM.
For `CN(C)S(=O)(=O)c1ccc(-c2ccnc(Nc3ccc4ncsc4c3)n2)cc1`, the Ratio IC50 [5] was greater than 24, the “Ratio IC50” value [3] was 4.7 and the inhibition [6] was 28%. The IC50 [4] was 1920 nM and the IC50 [2] was 410 nM.
`O=c1ccn(-c2ccc(-c3ccnc(Nc4ccc5ncsc5c4)n3)cc2)cc1` gave a Ratio IC50 [5] greater than 4, an inhibition [6] of 14% and an IC50 [2] of 2500 nM.
With `O=S(=O)(c1ccc(-c2ccnc(Nc3ccc4ncsc4c3)n2)cc1)N1CCSCC1` the “Ratio IC50” value [3] was 1.2, the IC50 [4] was 289 nM and the IC50 [2] was 250 nM. It also gave an IC50 [1] of 5000 nM.
In the case of `O=S(=O)(c1ccc(-c2ccnc(Nc3ccc4ncsc4c3)n2)cc1)N1CCNCC1`, the Ratio IC50 [5] is reported as 13, the “Ratio IC50” value [3] is reported as 89 and the IC50 [4] is reported as 5700 nM. It also gave an IC50 [2] of 64 nM and an IC50 [1] of 850 nM.
`NCCC(=O)Nc1ccc(-c2ccnc(Nc3ccc4ncsc4c3)n2)cc1` showed a Ratio IC50 [5] of 3, an IC50 [2] of 270 nM and an IC50 [1] of 731 nM.
Molecule `c1cn(-c2ccc(-c3ccnc(Nc4ccc5ncsc5c4)n3)cc2)cn1` has a Ratio IC50 [5] greater than 14, an inhibition [6] of 34% and an IC50 [2] of 700 nM.
`O=S(=O)(Nc1ccc(-c2ccnc(Nc3ccc4ncsc4c3)n2)cc1)c1cc(Cl)c(Cl)s1` gave an IC50 [2] of 8900 nM.
`CN(CCOc1ccc(-c2ccnc(Nc3ccc4ncsc4c3)n2)cc1)c1ccccn1` showed an IC50 [2] of 4000 nM.
